Values joined by “and” are separate entries in the source; they are usually repeats but may differ in a detail not shown here. Identical values can stand only once.
How the values were obtained:
Details in all cases: in vivo
yellow nutsedge [1] = tested on: yellow nutsedge; set-up: species or system Cyperus esculentus
[2] = tested on: three grassy weeds (wild oat, watergrass, foxtail); set-up: species or system Avena fatua, Echinochloa crusgalli, Setaria viridis
[3] = tested on: three grassy weeds (wild oat, watergrass, foxtail); set-up: species or system Avena fatua, Echinochloa crusgalli, Setaria viridis; remark: listed apart in the source
[4] = tested on: three broadleaf weeds (morning glory, mustard, velvetleaf); set-up: species or system Ipomoea purpurea, Brassica kaber, Abutilon theophrasti
yellow nutsedge [5] = tested on: yellow nutsedge; set-up: species or system Cyperus esculentus; remark: listed apart in the source
[6] = tested on: three broadleaf weeds (morning glory, mustard, velvetleaf); set-up: species or system Ipomoea purpurea, Brassica kaber, Abutilon theophrasti; remark: listed apart in the source

Structure (SMILES)	% Control, Pre-emergence, NS (yellow nutsedge [1]) [%]	% Control, Post-emergence, GR avg. [2]	% Control, Pre-emergence, GR avg. [3] [%]	% Control, Pre-emergence, BL avg. [4] [%]	% Control, Post-emergence, NS (yellow nutsedge [5])	% Control, Post-emergence, BL avg. [6]
CCCCN(CCCC)P(=O)(SCCC)N(CCCC)CCCC [Compound 7, S-n-propyl-tetra(n-butyl) phosphorodiamide]	0	90% and 93%	0	0	10% and 0%	90% and 100%
CCCSP(=O)(N(CCC)CCC)N(C)c1cccnc1 (stereo not drawn) [Compound 40]	0	10%	0	0	0%	70%
CCCCSP(=O)(N(CCC)CCC)N(CCC)CCC [Compound 1]	0	90% and 85%	2	50	10% and 5%	90% and 100%
CCCSP(=O)(N(CCC)CCC)N(CC)c1ccccc1 (stereo not drawn) [Compound 26]	0	20% and 10%	7	33	0%	50%
CCCCN(c1ccccc1)P(=O)(SCCC)N(CCC)CCC (stereo not drawn) [Compound 24]	0	30% and 23%	0	33	10% and 0%	80% and 73%
CCCSP(=O)(N(CCC)CCC)N(C)c1ccc(Br)cc1C (stereo not drawn) [Compound 39]	0	67%	0	0	80%	93%
CCCSP(=O)(N(CCC)CCC)N(C)c1ccc(F)c(F)c1 (stereo not drawn) [Compound 30]	0	5% and 0%	0	0	0%	80% and 97%
CCCSP(=O)(N(CCC)CCC)N(C)c1ccc(Cl)cc1C (stereo not drawn) [Compound 62]	0	30% and 33%	0	0	0%	75% and 76%
CCCSP(=O)(N(CCC)CCC)N(CCC)c1ccccc1 (stereo not drawn) [Compound 25]	0	50% and 67%	0	33	0%	50% and 67%
CCCSP(=O)(N(C)CC)N(CCC)CCC (stereo not drawn) [Compound 2]	0	80% and 57%	33	33	20% and 10%	100%
CCCN(CCC)P(=O)(Sc1ccccc1)N(CCC)CCC [Compound 63]	0	60% and 43%	0	3	0%	80% and 91%
CCCSP(=O)(N(CCC)CCC)N(C)c1ccc(Cl)cc1 (stereo not drawn) [Compound 16]	0	33% and 47%	0	0	0%	43% and 73%
CCCSP(=O)(N(CCC)CCC)N(C)c1ccc(Cl)cc1Cl (stereo not drawn) [Compound 22]	0	50% and 53%	0	0	10% and 0%	60%
CCCSP(=O)(N(CCC)CCC)N(C)c1ccc(OC)cc1 (stereo not drawn) [Compound 36]	0	10%	0	0	0%	100%
CCCN(CCC)P(=O)(Sc1ccc(Cl)cc1)N(CCC)CCC [Compound 6]	0	70% and 53%	0	0	0%	80% and 93%
CCCSP(=O)(N(CCC)CCC)N(C)c1c(F)c(F)cc(F)c1F (stereo not drawn) [Compound 53]	0	75% and 43%	0	10	0%	100%
CCCSP(=O)(N(CCC)CCC)N(C)c1ccc(Cl)c(Cl)c1 (stereo not drawn) [Compound 20]	0	20% and 13%	0	0	5% and 0%	50% and 67%
CCCSP(=O)(N(CCC)CCC)N(C)c1ccccc1C (stereo not drawn) [Compound 14]	0	60% and 73%	30	33	5% and 0%	60% and 67%
CCCSP(=O)(N(CCC)CCC)N(CCC)c1ccccc1C(C)C (stereo not drawn) [Compound 57]	0	20% and 16%	0	0	0%	70% and 60%
CCCCN(CC(C)C)P(=O)(SCCC)N(CCCC)CC(C)C [Compound 50]	0	90% and 77%	0	0	0%	85% and 70%
CCCSP(=O)(N(CCC)CCC)N(C)c1ccc(OC)cc1 (stereo not drawn) [Compound 10]	9	30% and 23%	0	0	10% and 0%	80%
CCCCCSP(=O)(N(CCCC)CCCC)N(CCCC)CCCC [Compound 4]	0	70% and 77%	0	0	0%	50% and 45%
CCCSP(=O)(N(CCC)CCC)N(C)c1cccc(Cl)c1Cl (stereo not drawn) [Compound 35]	0	20% and 33%	0	0	0%	20% and 33%
CCCN(CCC)P(=O)(Sc1ccccc1C)N(CCC)CCC [Compound 5]	0	40% and 27%	0	0	0%	40% and 33%
CCCSP(=O)(N(CC)CC(C)C)N(CC)CC(C)C [Compound 49]	0	80% and 47%	0	0	0%	100%
CCCSP(=O)(N(CCC)CCC)N(C)c1ccc(Cl)cc1Cl (stereo not drawn) [Compound 38]	0	40%	0	0	0%	100%
CCCSP(=O)(N(CCC)CCC)N(C)c1cccc([N+](=O)[O-])c1 (stereo not drawn) [Compound 44]	0	10%	0	0	0%	53%
CCCSP(=O)(N(CCC)CCC)N(C)c1cc(F)c(F)cc1F (stereo not drawn) [Compound 48]	0	80% and 40%	0	0	0%	90% and 80%
CCCSP(=O)(N(CC)CCC(C)C)N(CC)CCC(C)C [Compound 51]	0	70% and 45%	0	8	0%	95% and 100%
CCCSP(=O)(N(CCC)CCC)N(CCOC)CCOC (stereo not drawn) [Compound 46]	0	30% and 47%	0	0	0%	60% and 73%

Reference: patent publication US5189169A (priority 1991, dated 1993)
